Data from ChEMBL document CHEMBL5528001, “Synthetic product-based approach toward potential antileishmanial drug development” (Eur J Med Chem, 2024).
Each block holds one compound with its values, some of them ahead of it.

How the values were obtained:
[1] = system: Leishmania donovani; test: Antileishmanial activity against Leishmania donovani MHOM/ET/67/HU3 promastigotes assessed as inhibition of parasite growth incubated for 72 hrs by MTT assay; type: functional, organism-based; conditions: MHOM/ET/67/HU3, 72 h
[2] = Selectivity index, ratio of CC50 for cytotoxicity against mouse J774.A1 cells to IC50 for antileishmanial activity against Leishmania amazonensis axenic amastigote assessed as inhibition of parasite growth; type: toxicity, cell-based; conditions: read-out: Ratio CC50/IC50
[3] = system: Leishmania donovani; test: Antileishmanial activity against Leishmania donovani axenic amastigotes assessed as reduction in parasite growth measured after 24 hrs by PI staining based analysis; type: functional, organism-based
[4] = system: Leishmania donovani; test: Antileishmanial activity against Leishmania donovani Ag83 promastigotes infected in BALB/c mouse assessed as reduction in parasite infection at 5 to 20 mg/kg by propidium iodide staining analysis; type: functional, organism-based
[5] = system: Leishmania infantum; test: Antileishmanial activity against Leishmania infantum MON-1 promastigotes assessed as reduction in parasite viability measured after 48 hrs by MTT assay; type: functional, organism-based; conditions: MON-1, 48 h
[6] = system: HepG2; test: Antiproliferative activity against human HepG2 cells assessed as reduction in cell growth measured for 72 hrs by MTT assay; type: functional, cell-based; conditions: HepG2, 72 h
[7] = system: HepG2; test: Cytotoxicity against human HepG2 cells assessed as reduction in cell growth measured for 48 hrs by MTT assay; type: functional
[8] = system: Leishmania donovani; test: Antileishmanial activity against Leishmania donovani MHOM/SD/62/1S amastigotes assessed as reduction in cell growth; type: functional, organism-based
[9] = system: Leishmania major; test: Antileishmanial activity against Leishmania major MHOM/IN/95/9515 amastigotes assessed as reduction in cell growth; type: functional, organism-based
[10] = system: Leishmania braziliensis; test: Antileishmanial activity against Leishmania braziliensis promastigotes; type: functional, organism-based
[11] = system: Leishmania major; test: Antileishmanial activity against Leishmania major promastigotes; type: functional, organism-based
[12] = Cytotoxicity against African green monkey Vero cells assessed as reduction in cell growth; type: toxicity, cell-based, Chlorocebus sabaeus
[13] = system: Leishmania major; test: Antileishmanial activity against Leishmania major promastigotes assessed as reduction in parasite growth incubated for 48 hrs by MTT assay; type: functional, organism-based
[14] = Cytotoxicity against human THP-1 cells assessed as reduction in cell growth incubated for 3 days by resazurin dye based analysis; type: toxicity; conditions: time 3 day
[15] = Cytotoxicity against HEK293 cells assessed as reduction in cell growth incubated for 3 days by resazurin dye based analysis; type: toxicity; conditions: human, time 3 day
[16] = system: Leishmania infantum; test: Antiparasitic activity against Leishmania infantum amastigotes infected in human THP-1 cells assessed as reduction in parasitemia incubated for 72 hrs by high content imaging analysis; type: functional, organism-based; conditions: THP-1, 72 h
[17] = system: Leishmania amazonensis; test: Antileishmanial activity against Leishmania amazonensis promastigotes assessed as reduction in parasite viability incubated for 48 hrs by MTT assay; type: functional, organism-based
[18] = system: Leishmania tropica; test: Antileishmanial activity against Leishmania tropica promastigotes incubated for 24 hrs measured by alamar blue staining based fluorescence analysis; type: functional, organism-based
[19] = system: Leishmania infantum; test: Antileishmanial activity against Leishmania infantum MCAN/ES/89/IPZ229/1/89 axenic amastigotes assessed as reduction in parasite growth treated for 24 hrs by PI staining based flow cytometry; type: functional, organism-based; conditions: MCAN/ES/89/IPZ229/1/89, 24 h
[20] = Selectivity index, ratio of CC50 for human HepG2 cells to EC50 for GFP-expressing Leishmania infantum intracellular amastigotes infected in human THP-1 derived macrophage cells; type: toxicity, cell-based; conditions: read-out: Ratio CC50/EC50
[21] = Cytotoxicity against primary peritoneal mouse macrophages cells assessed as reduction in cell growth measured after 24 hrs by colorimetric assay; type: toxicity, cell-based, Macrophage
[22] = system: Leishmania major; test: Antileishmanial activity against Leishmania major IR-173 promastigotes assessed as inhibition of parasite growth measured for 48 hrs by resazurin staining based analysis; type: functional, organism-based; conditions: IR-173, 48 h
[23] = system: Leishmania amazonensis; test: Antileishmanial activity against Leishmania amazonensis promastigotes assessed as reduction in parasite viability after 72 hrs by CCK-8 assay; type: functional, organism-based
[24] = system: Leishmania braziliensis; test: Antileishmanial activity against Leishmania braziliensis promastigotes assessed as reduction in parasite viability after 72 hrs by CCK-8 assay; type: functional, organism-based
[25] = system: Leishmania infantum; test: Antileishmanial activity against Leishmania infantum MCAN/ES/ 89/IPZ229/1/89 axenic amastigotes assessed as reduction in parasite viability treated for 48 hrs by PI staining based flow cytometry; type: functional, organism-based; conditions: MCAN/ES/89/IPZ229/1/89, 48 h
[26] = system: Leishmania donovani; test: Antileishmanial activity against Leishmania donovani 9515 promastigotes assessed as inhibition of parasite growth incubated for 48 hrs by resazurin dye based assay; type: functional, organism-based; conditions: Leishmania donovani, 9515, 48 h
[27] = system: Leishmania donovani; test: Antileishmanial activity against Leishmania donovani promastigotes MHOM/SD/62/1S assessed as inhibition of cell growth measured after 48 hrs by resazurin dye based assay; type: functional, organism-based
[28] = system: Leishmania donovani; test: Antileishmanial activity against Leishmania donovani amastigotes MHOM/SD/62/1S assessed as inhibition of cell growth measured after 48 hrs by resazurin dye based assay; type: functional, organism-based
[29] = system: Leishmania donovani; test: Antileishmanial activity against Leishmania donovani 9515 amastigotes assessed as inhibition of parasite growth incubated for 48 hrs by resazurin dye based assay; type: functional, organism-based; conditions: Leishmania donovani, 9515, 48 h
[30] = Cytotoxicity against African green monkey Vero cells assessed as reduction in cell viability incubated for 72 hrs by MTT assay; type: toxicity, cell-based, Chlorocebus sabaeus
[31] = Cytotoxicity against human THP-1 cells assessed as inhibition of cell growth measured after 72 hrs by MTT assay; type: toxicity, cell-based
[32] = system: Leishmania amazonensis; test: Antileishmanial activity against Leishmania amazonensis MHOM/BR/71973/M2269 promastigotes assessed as reduction in parasite viability measured for 48 hrs PI staining based flow cytometry analysis; type: functional, organism-based; conditions: MHOM/BR/71973, 48 h
[33] = system: Leishmania infantum; test: Antileishmanial activity against Leishmania infantum MHOM/BR/1972/BH46 promastigotes assessed as reduction in parasite viability measured for 48 hrs by PI staining based flow cytometry analysis; type: functional, organism-based; conditions: MHOM/BR/1972/BH46, 48 h
[34] = system: Leishmania infantum; test: Antileishmanial activity against Leishmania infantum MHOM/BR/1972/BH46 amastigotes assessed as reduction in cell viability measured for 48 hrs by PI staining based flow cytometry analysis; type: functional, organism-based; conditions: MHOM/BR/1972/BH46, 48 h
[35] = system: Leishmania infantum; test: Antileishmanial activity against Leishmania infantum MHOM/MA/67/ITMAP263 axenic amastigotes assessed as reduction in parasite viability treated for 24 hrs by PI staining based flow cytometry; type: functional, organism-based; conditions: MHOM/MA/67/ITMAP263, 24 h
[36] = system: Leishmania amazonensis; test: Antileishmanial activity against Leishmania amazonensis intracellular amastigotes assessed as parasite growth inhibition measured for 72 hrs by resazurin/alamar blue fluorometric assay; type: functional, organism-based
[37] = Selectivity index, ratio of CC50 for cytotoxicity against mouse BMDM cells to IC50 for antileishmanial activity against Leishmania amazonensis intracellular amastigotes; type: toxicity, cell-based; conditions: read-out: Ratio CC50/IC50
[38] = system: HepG2; test: Antiproliferative activity against human HepG2 cells assessed as reduction in cell viability incubated for 72 hrs by MTT assay; type: functional, cell-based; conditions: HepG2, 72 h
[39] = system: HepG2; test: Cytotoxicity against human HepG2 cells assessed as reduction in cell growth incubated for 48 hrs by MTT assay; type: functional, cell-based; conditions: HepG2, 48 h
[40] = system: Leishmania infantum; test: Antileishmanial activity against Leishmania infantum MCAN/ES/89/IPZ229/1/89 promastigotes assessed as reduction in parasite growth measured for 48 hrs by resazurin dye based analysis; type: functional, organism-based; conditions: MCAN/ES/89/IPZ229/1/89, 48 h

SMILES: CC(=O)Oc1ccc(CN2CNC(=O)C=N2)cc1C1OC(c2cccc(Cl)c2)=NN1C(C)=O (stereo not given)
IC50 [1]: 8.98 µM
selectivity ratio [2]: 2.4
IC50 [3]: 6.05 µM

IC50 [4]: 3.2 µM
SMILES: O=C(Nc1cncs1)C(c1ccccc1)c1ccc(Cl)cc1 (stereo not given)

EC50 [6]: 10.2 µM
SMILES: CCOC(=O)c1cc2c([nH]c3ccccc32)c(-c2cc3ccccc3n3nnnc23)n1
EC50 [5]: 3.36 µM
CC50 [7]: 27.9 µM

SMILES: Cc1ccc2c(NCCCN(C)C(=O)c3cccc(/C=C/C(=O)c4ccc(C)o4)c3)ccnc2c1
IC50 [8]: 1.08 µM
IC50 [9]: 1.14 µM

IC50 [10]: 2.4 µM
IC50 [11]: 5.4 µM
SMILES: Cc1cc(OCCCCCNC(C)(C)C)cc2oc3cc(OCCCCCNC(C)(C)C)cc(O)c3c(=O)c12
IC50 [12]: 15.5 µM

SMILES: COc1ccc(C(=O)NC(=S)Nc2nc(-c3ccccc3)c(C)s2)cc1
IC50 [13]: 84.8 µM

SMILES: COc1cc(/C=C2/Oc3cc(O)ccc3C2=O)cc(OC)c1
CC50 at 72 h [14]: 96.9 µM
CC50 at 72 h [15]: > 200 µM

IC50 [16]: > 6.25 µM
SMILES: Cn1c(=O)c2c(c3ccccc31)OC(C)(C)[C@H]1CC[C@@](C)(O)[C@H](Cl)[C@H]21

SMILES: O=C(CCc1ccc(O)c(O)c1)O[C@H](Cc1ccc(O)cc1)C(=O)O
IC50 [17]: 19 µM

SMILES: Nc1ccnn1C(=O)C1CCC2(CC1)OOC1(O2)C2CC3CC(C2)CC1C3 (stereo not given)
IC50 [18]: 219 µM
IC50 [19]: 219 µM
selectivity ratio [20]: < 5

SMILES: CCCCCCCCCCn1cc(CNCCNc2ccnc3cc(Cl)ccc23)nn1
CC50 at 24 h [21]: 18.2 µM
IC50 [22]: 0.08 µM

SMILES: COc1cc(OC)c(C(=O)/C=C/c2cccc(C)c2)c([N+](=O)[O-])c1
EC50 [23]: 0.42 µM
EC50 [24]: 1.45 µM

SMILES: CC1(C)Oc2c(c(=O)[nH]c3ccccc23)[C@H]2[C@@H](Cl)[C@](C)(O)CC[C@@H]21
IC50 [25]: 8.1 µM

SMILES: O=[N+]([O-])c1ccc(/C=N\NS(=O)(=O)c2ccc(-c3ccccc3)cc2)o1
IC50 [26]: 1.53 µM
IC50 [27]: 1.45 µM
IC50 [28]: 2.94 µM
IC50 [29]: 6.29 µM
IC50 at 72 h [30]: 16.4 µM
IC50 at 72 h [31]: 50.4 µM

SMILES: C=CCc1cc(OC)c2oc(=O)c(C(=O)c3ccccc3)cc2c1
IC50 [32]: 82 µM
IC50 [33]: 26.7 µM
IC50 [34]: 18 µM

SMILES: CCCCCCCCNCc1ccc2c(c1)C(=O)CC(C)(C)O2
IC50 [35]: 25.3 µM
IC50 [36]: 24.6 µM
selectivity ratio [37]: 1.6

EC50 [38]: < 30 µM
SMILES: Nc1nc2ccccc2c2ccccc12
EC50 [39]: 3.07 µM
EC50 [40]: 12.6 µM
